Data from patent US11685761B2, “Cyclic di-nucleotide compounds as sting agonists” (Merck Sharp & Dohme Corp., priority 2017, dated 2023).
Like-named read-outs stand apart in the source and are kept apart here.

Experiments:
[1] = system: IFN-β secretion from THP1 cells; assay: IFN-β secretion in THP1 cell culture (5 h); format: cell-based, human; details: for activation at 30 µM: Homo sapiens, read-out: % Effect at 30 μM relative to 2′3′-cGAMP
Procedure: The ability of compounds to stimulate the secretion of interferon-beta from THP1 cells was measured using a human IFN-β AlphaLISA kit (Perkin Elmer, Cat. No. AL265F). The basic protocol is as follows:
The cell viability and count was ascertained using a Beckman Coulter V-Cell XR cell counter. The cell suspension was centrifuged at 200×g for 5 min at RT. Cells were resuspended to a density of 0.8×10^6/mL in 37° C. assay medium. Subsequent liquid transfers were performed using either a Matrix electronic multichannel pipette or an Agilent Bravo Automated Liquid Handling Platform.
The assay was started by dispensing 40 μL of the previously prepared cell suspension into the wells of the plate containing compounds. After 5 h incubation at 37° C., 5% CO2 in a humidified atmosphere, the plate of cells and compounds was centrifuged at 200×g for 5 min at RT. […] To these supernatant-containing wells was added 10 μL of 5× Anti-Analyte Acceptor beads (50 μg/mL of AlphaLISA HiBlock Buffer) and incubated for 30 min at RT while shaking on an orbital plate shaker. To each well was added 10 μL of 5× Biotinylated Antibody Anti-analyte (5 nM in AlphaLISA HiBlock Buffer) and incubated on an orbital plate shaker for 60 min at RT or overnight at 4° C. To each well was added 25 μL of 2× SA-Donor beads (80 μg/mL in AlphaLISA HiBlock Buffer) and incubated for 30-45 min at RT in the dark while shaking on an orbital plate shaker. The plate was then read on a Perkin Elmer Envision (λex680 nm, λem=570 nm). The percent effect of the AlphaLISA signal at each compound concentration was calculated based on 30 uM cGAMP positive controls and 0.3% DMSO negative controls. The plot of percent effect versus the log of compound concentration was fit with a 4-parameter concentration response equation to calculate EC50 values.
Compounds of the disclosure were evaluated for IFN-β secretion in THP1 cell culture as described above.

full-length HAQ STING = biological target: T1, full-length HAQ STING (Homo sapiens, UniProt Q86WV6, G230A/H232R/R293Q/R71H); assay: 3H-cGAMP filtration binding assay (HAQ STING); details: competition with tritiated cGAMP ligand; T. ni cell membranes overexpressing full-length HAQ STING
T1 construct: made in house; host or cells: Trichoplusia ni (Hi-Five) insect cells, baculovirus generated in Sf21; crude membranes
T1 sequence (Q86WV6 with tags, fused parts or gaps R71H/G230A/H232R/R293Q): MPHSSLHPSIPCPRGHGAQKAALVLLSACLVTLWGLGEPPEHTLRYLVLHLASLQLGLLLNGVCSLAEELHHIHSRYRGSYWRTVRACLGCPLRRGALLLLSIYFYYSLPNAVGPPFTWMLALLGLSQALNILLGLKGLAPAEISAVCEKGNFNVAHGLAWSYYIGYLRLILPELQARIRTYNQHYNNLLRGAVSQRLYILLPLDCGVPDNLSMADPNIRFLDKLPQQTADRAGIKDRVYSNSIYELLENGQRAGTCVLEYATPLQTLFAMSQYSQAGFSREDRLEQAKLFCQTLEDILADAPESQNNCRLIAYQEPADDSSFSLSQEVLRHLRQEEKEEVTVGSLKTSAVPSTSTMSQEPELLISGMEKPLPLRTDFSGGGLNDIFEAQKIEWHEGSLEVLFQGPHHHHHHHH
Source text: The ability of compounds to bind STING is quantified by the ability to compete with tritiated cGAMP ligand for human STING receptor membrane using a radioactive filter-binding assay. The binding assay employs STING receptor obtained from Hi-Five cell membranes overexpressing full-length HAQ STING prepared in-house and tritiated cGAMP ligand also purified in-house.
The ability of compounds to bind STING is quantified by their ability to compete with tritiated cGAMP ligand for human STING receptor membrane using a radioactive filter-binding assay. The binding assay employs STING receptor obtained from Trichoplusia ni cell membranes (T. ni; Expression Systems, cat #94-002F, www.expressionsystems.com) overexpressing full-length HAQ STING and tritiated cGAMP ligand.
The basic HAQ STING filtration assay protocol is as follows:
The compounds were serially titrated by the Hamilton STARPlus CORE in a 96-well plate (Greiner, #651201) using a 1:3 ten-point dose response format. […] 148 uL of prepared membrane was then manually added to each well of a 96-well deep-well polypropylene plate (Fisher Scientific, #12-566-121). Following membrane addition, 2 uL of either titrated test compound, DMSO control (Sigma #276855), or cold cGAMP control was added to the appropriate wells using a BIOMEK FX. Compound and membrane then preincubated for 60 min at RT to allow compound binding to equilibrate. Following equilibration, 8 nM of [^3H] c-GAMP ligand was prepared by diluting into assay buffer, and 50 uL of this working stock was then manually added to each well of the assay plate. Plates were then incubated at RT for 60 min, and the contents of each assay plate were then filtered through a 96-well GF/B filter plate (PerkinElmer, #6005250) using a TOMTEC MACH III Cell Harvester equipped with 20 mM HEPES buffer (Fisher Scientific, #BP299500). The filter plates were then dried at 55° C. for 30 min using a pressurized oven before 30 uL of ULTIMA GOLD F scintillate was added to each well. Tritium levels for each reaction well were then measured using a PerkinElmer TopCount plate reader.
After normalization to controls, the percent activity for each compound concentration was calculated by measuring the amount of remaining radioactivity. The plot of percent activity versus the log of compound concentration was fit with a 4-parameter dose response equation to calculate EC50 values.

[2] = THP-1, 5 h, THP1 cells, 5 h incubation, compound at 30 μM, 30 uM cGAMP = 100%
[3] = THP1 cells, 5 h incubation, compound at 30 μM, 30 uM cGAMP = 100%

Nc1ncnn2c([C@H]3C[C@@H]4O[P@](=O)(S)OC[C@H]5O[C@@H](n6ccc(=O)n7ccnc67)[C@H](O[P@](=O)(S)OC[C@H]4O3)[C@@H]5O)cnc12 (single isomer, unassigned) [Example 8]
activation at 30 µM [1, 2]: 128% | EC50 (full-length HAQ STING): 23 nM

Nc1ncnn2c([C@H]3C[C@@H]4O[P@](=O)(S)OC[C@H]5O[C@@H](n6ccc(=O)n7ccnc67)[C@H](O[P@@](=O)(S)OC[C@H]4O3)[C@@H]5O)cnc12 (single isomer, unassigned) [Example 9]
activation at 30 µM [1, 2]: 80% | EC50 (full-length HAQ STING): 23 nM

Nc1ncnc2c1ncn2[C@@H]1S[C@@H]2CO[P@@](=O)(S)O[C@@H]3[C@H](O)[C@@H](CO[P@@](=O)(S)O[C@H]2[C@H]1O)O[C@H]3n1ccc(=O)n2ccnc12 (single isomer, unassigned) [Example 10]
activation at 30 µM [1, 2]: 183% | EC50 (full-length HAQ STING): 3 nM

Nc1ncnc2c1ncn2[C@@H]1S[C@@H]2CO[P@](=O)(S)O[C@@H]3[C@H](O)[C@@H](CO[P@@](=O)(S)O[C@H]2[C@H]1O)O[C@H]3n1ccc(=O)n2ccnc12 (single isomer, unassigned) [Example 11]
activation at 30 µM [1, 2]: 5% | EC50 (full-length HAQ STING): 1740 nM

Nc1ncnc2c1ncn2[C@@H]1S[C@@H]2CO[P@@](=O)(S)O[C@@H]3[C@H](O)[C@@H](CO[P@](=O)(S)O[C@H]2[C@H]1O)O[C@H]3n1ccc(=O)n2ccnc12 (single isomer, unassigned) [Example 12]
activation at 30 µM [1, 2]: 123% | EC50 (full-length HAQ STING): 156 nM

Nc1ncnc2c1nnn2[C@@H]1O[C@@H]2COP(=O)(S)O[C@@H]3[C@H](F)[C@@H](COP(=O)(S)O[C@H]2[C@@H]1F)O[C@H]3n1cnc2c(=O)n3cc[nH]c3nc21 (single isomer, unassigned) [Example 23]
EC50 (full-length HAQ STING): 28 nM

Nc1ncnc2c1nnn2[C@@H]1O[C@@H]2COP(=O)(S)O[C@@H]3[C@H](F)[C@@H](COP(=O)(S)O[C@H]2[C@@H]1F)O[C@H]3n1cnc2c(=O)n3cc[nH]c3nc21 (single isomer, unassigned) [Example 24]
EC50 (full-length HAQ STING): 411 nM

Nc1ncnc2c1ncn2[C@@H]1O[C@@]23CO[C@@H]1[C@@H]2OP(=O)(S)OC[C@H]1O[C@@H](n2cnc4c(=O)n5cc[nH]c5nc42)[C@H](OP(=O)(S)OC3)[C@@H]1F (single isomer, unassigned) [Example 25]
% Effect at 30 μM relative to 2′3′-cGAMP [1, 3]: 131% | EC50 (full-length HAQ STING): 1 nM

Nc1ncnc2c1ncn2[C@@H]1O[C@@]23CO[C@@H]1[C@@H]2OP(=O)(S)OC[C@H]1O[C@@H](n2cnc4c(=O)n5cc[nH]c5nc42)[C@H](OP(=O)(S)OC3)[C@@H]1F (single isomer, unassigned) [Example 26]
% Effect at 30 μM relative to 2′3′-cGAMP [1, 3]: 153% | EC50 (full-length HAQ STING): 19 nM

Nc1ncnc2c1ncn2[C@@H]1O[C@@]23CO[C@@H]1[C@@H]2OP(=O)(S)OC[C@H]1O[C@@H](n2cnc4c(=O)n5cc[nH]c5nc42)[C@H](OP(=O)(S)OC3)[C@@H]1F (single isomer, unassigned) [Example 27]
% Effect at 30 μM relative to 2′3′-cGAMP [1, 3]: 143% | EC50 (full-length HAQ STING): 61 nM

Nc1nc2c(ncn2[C@@H]2O[C@@H]3COP(=O)(S)O[C@H]4[C@@H](O)[C@H](n5cnc6c(=O)[nH]c7nccn7c65)O[C@@H]4COP(=O)(S)O[C@@H]2[C@@H]3F)c(=O)[nH]1 (single isomer, unassigned) [Example 32]
% Effect at 30 μM relative to 2′3′-cGAMP [1, 3]: 141% | EC50 (full-length HAQ STING): 14 nM

Nc1nc2c(ncn2[C@@H]2O[C@@H]3COP(=O)(S)O[C@H]4[C@@H](O)[C@H](n5cnc6c(=O)[nH]c7nccn7c65)O[C@@H]4COP(=O)(S)O[C@@H]2[C@@H]3F)c(=O)[nH]1 (single isomer, unassigned) [Example 33]
% Effect at 30 μM relative to 2′3′-cGAMP [1, 3]: 83% | EC50 (full-length HAQ STING): 90 nM

Nc1nc2c(ncn2[C@@H]2O[C@@H]3COP(=O)(S)O[C@H]4C[C@H](n5ccc6c(=O)[nH]cnc65)O[C@@H]4COP(=O)(S)O[C@@H]2[C@@H]3F)c(=O)[nH]1 (single isomer, unassigned) [Example 35]
% Effect at 30 μM relative to 2′3′-cGAMP [1]: 98% | EC50 (full-length HAQ STING): 11 nM

Nc1nc2c(ncn2[C@@H]2O[C@@H]3COP(=O)(S)O[C@H]4C[C@H](n5ccc6c(=O)[nH]cnc65)O[C@@H]4COP(=O)(S)O[C@@H]2[C@@H]3F)c(=O)[nH]1 (single isomer, unassigned) [Example 36]
activation at 30 µM [1, 2]: 94% | EC50 (full-length HAQ STING): 2 nM

Nc1nc2c(ncn2[C@@H]2O[C@@H]3COP(=O)(S)O[C@H]4C[C@H](n5ccc6c(=O)[nH]cnc65)O[C@@H]4COP(=O)(S)O[C@@H]2C3)c(=O)[nH]1 (single isomer, unassigned) [Example 37]
activation at 30 µM [1, 2]: 102% | EC50 (full-length HAQ STING): 49 nM

Nc1nc2c(ncn2[C@@H]2O[C@@H]3COP(=O)(S)O[C@H]4[C@H](F)[C@H](n5ccc6c(=O)[nH]cnc65)O[C@@H]4COP(=O)(S)O[C@@H]2[C@@H]3F)c(=O)[nH]1 (single isomer, unassigned) [Example 39]
activation at 30 µM [1, 2]: 166% | EC50 (full-length HAQ STING): 1 nM

Nc1ncnc2c1ncn2[C@@H]1O[C@@H]2COP(=O)(S)O[C@H]3[C@H](F)[C@H](n4ccc5c(=O)[nH]cnc54)O[C@@H]3COP(=O)(S)O[C@@H]1C2 (single isomer, unassigned) [Example 47]
% Effect at 30 μM relative to 2′3′-cGAMP [1, 3]: 13% | EC50 (full-length HAQ STING): 460 nM

Nc1ncnc2c1ncn2[C@@H]1O[C@@H]2COP(=O)(S)O[C@@H]3[C@@H](F)[C@@H](COP(=O)(S)O[C@H]2[C@@H]1F)O[C@H]3n1cnc2c(=O)[nH]ccc21 (stereo partly drawn) [Example 21, 1-[(5R,7R,8S,12aR,14R,15S,15aR,16S)-14-(6-amino-9H-purin-9-yl)-15,16-difluoro-2,10-dioxido-2,10-disulfanyloctahydro-12H-5,8-methanofuro[3,2-1][1,3,6,9,11,2,10]pentaoxadiphosphacyclotetradecin-7-yl]-1,5-dihydro-4H-imidazo[4,5-c]pyridin-4-one]
activation at 30 µM ([1]; THP-1, THP1 cells, 5 h incubation, compound at 30 μM, 30 uM cGAMP = 100%): 143%

Nc1ncnc2c1ccn2[C@@H]1O[C@@H]2COP(=O)(S)O[C@@H]3C[C@@H](COP(=O)(S)O[C@H]2[C@@H]1F)O[C@H]3n1cnc2c(=O)[nH]ccc21 (stereo partly drawn) [Example 22, 1-[(5S,7R,8R,12aR,14R,15S,15aR)-14-(4-amino-7H-pyrrolo[2,3-d]pyrimidin-7-yl)-15-fluoro-2,10-dioxido-2,10-disulfanyloctahydro-12H-5,8-methanofuro[3,2-l][1,3,6,9,11,2,10]pentaoxadiphosphacyclotetradecin-7-yl]-1,5-dihydro-4H-imidazo[4,5-c]pyridin-4-one]
activation at 30 µM [1, 2]: 100%
